Drawing on paper PMC10824666 (Nature Cancer, 2023), this text covers remaining activity for 3 compounds.

SMILES strings stand for the structures. Read-outs that look alike come from different tables or passages of the source.

Common to all, as to assay: biochemical
What all share (design): Eurofins DiscoverX kinase panel, competitive binding assay at 1 uM, percent of DMSO control
Details in all cases: competitive binding, percent of DMSO control

One assay has as its target T1, MAP2K3 (Homo sapiens, UniProt P46734).
T1 sequence (P46734 1-347): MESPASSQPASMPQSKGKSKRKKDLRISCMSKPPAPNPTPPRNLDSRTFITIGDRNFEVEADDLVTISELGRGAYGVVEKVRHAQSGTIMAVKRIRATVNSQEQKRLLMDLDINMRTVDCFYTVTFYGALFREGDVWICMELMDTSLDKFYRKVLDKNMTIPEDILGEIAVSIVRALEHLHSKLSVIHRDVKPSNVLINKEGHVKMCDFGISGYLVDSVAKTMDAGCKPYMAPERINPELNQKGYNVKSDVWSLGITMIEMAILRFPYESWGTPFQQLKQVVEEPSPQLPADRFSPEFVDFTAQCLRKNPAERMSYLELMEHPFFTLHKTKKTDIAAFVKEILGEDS
The method in brief: (§1)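 Competitive binding assay across a 96-kinase panel with KIF18A compounds at 1 µM; values given as percentage of control (POC), single experiment.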

In a further assay the target is T2, Trk-A (Homo sapiens, UniProt P04629).
T2 construct: gene NTRK1
The essentials: as §1

Another assay concerns the target TGFBR2 (Homo sapiens, UniProt P37173). The essentials:
as §1

The target in a further assay is T3, Abl_phos (Homo sapiens, UniProt P00519).
T3 construct: gene ABL1; phosphorylated
The essentials: as §1

[1] abbreviates: read-out: Kinome Profiling performed by Eurofins DiscoverX / AM-0277, 1.0 µM / POC.
The mark [2] stands for this setting: read-out: Kinome Profiling performed by Eurofins DiscoverX / AM-1882, 1.0 µM / POC.
Setting [3] is: read-out: Kinome Profiling performed by Eurofins DiscoverX / AM-5308, 1.0 µM / POC.

T3 sequence (P00519 whole entry): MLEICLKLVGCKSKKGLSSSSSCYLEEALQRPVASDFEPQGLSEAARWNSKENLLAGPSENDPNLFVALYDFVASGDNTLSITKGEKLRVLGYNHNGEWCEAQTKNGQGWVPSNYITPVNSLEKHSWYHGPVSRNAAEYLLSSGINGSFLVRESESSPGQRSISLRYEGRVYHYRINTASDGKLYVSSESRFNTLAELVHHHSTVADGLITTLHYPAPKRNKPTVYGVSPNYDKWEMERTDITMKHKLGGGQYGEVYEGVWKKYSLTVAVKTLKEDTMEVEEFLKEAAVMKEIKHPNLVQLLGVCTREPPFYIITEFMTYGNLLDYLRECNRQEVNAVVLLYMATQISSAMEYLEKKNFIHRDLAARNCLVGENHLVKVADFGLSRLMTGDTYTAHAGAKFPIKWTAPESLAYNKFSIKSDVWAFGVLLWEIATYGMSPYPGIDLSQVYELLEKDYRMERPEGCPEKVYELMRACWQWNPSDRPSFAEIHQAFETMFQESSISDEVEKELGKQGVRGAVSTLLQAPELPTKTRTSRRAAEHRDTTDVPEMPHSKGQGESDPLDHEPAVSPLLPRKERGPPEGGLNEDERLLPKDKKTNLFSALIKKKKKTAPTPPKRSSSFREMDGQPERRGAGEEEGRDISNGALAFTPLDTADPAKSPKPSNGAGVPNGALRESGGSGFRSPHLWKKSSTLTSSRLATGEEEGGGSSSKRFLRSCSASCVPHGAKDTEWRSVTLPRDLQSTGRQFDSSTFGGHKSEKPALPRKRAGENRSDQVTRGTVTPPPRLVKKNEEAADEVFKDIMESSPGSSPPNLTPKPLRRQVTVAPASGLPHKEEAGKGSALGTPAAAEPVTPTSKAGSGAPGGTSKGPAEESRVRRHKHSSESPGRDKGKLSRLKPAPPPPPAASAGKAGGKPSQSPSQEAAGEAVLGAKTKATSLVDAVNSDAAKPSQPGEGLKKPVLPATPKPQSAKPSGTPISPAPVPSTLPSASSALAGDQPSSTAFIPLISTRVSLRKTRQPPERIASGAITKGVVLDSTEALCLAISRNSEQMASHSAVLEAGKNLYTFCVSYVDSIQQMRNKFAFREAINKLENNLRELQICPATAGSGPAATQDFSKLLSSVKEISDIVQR
T2 sequence (P04629 whole entry): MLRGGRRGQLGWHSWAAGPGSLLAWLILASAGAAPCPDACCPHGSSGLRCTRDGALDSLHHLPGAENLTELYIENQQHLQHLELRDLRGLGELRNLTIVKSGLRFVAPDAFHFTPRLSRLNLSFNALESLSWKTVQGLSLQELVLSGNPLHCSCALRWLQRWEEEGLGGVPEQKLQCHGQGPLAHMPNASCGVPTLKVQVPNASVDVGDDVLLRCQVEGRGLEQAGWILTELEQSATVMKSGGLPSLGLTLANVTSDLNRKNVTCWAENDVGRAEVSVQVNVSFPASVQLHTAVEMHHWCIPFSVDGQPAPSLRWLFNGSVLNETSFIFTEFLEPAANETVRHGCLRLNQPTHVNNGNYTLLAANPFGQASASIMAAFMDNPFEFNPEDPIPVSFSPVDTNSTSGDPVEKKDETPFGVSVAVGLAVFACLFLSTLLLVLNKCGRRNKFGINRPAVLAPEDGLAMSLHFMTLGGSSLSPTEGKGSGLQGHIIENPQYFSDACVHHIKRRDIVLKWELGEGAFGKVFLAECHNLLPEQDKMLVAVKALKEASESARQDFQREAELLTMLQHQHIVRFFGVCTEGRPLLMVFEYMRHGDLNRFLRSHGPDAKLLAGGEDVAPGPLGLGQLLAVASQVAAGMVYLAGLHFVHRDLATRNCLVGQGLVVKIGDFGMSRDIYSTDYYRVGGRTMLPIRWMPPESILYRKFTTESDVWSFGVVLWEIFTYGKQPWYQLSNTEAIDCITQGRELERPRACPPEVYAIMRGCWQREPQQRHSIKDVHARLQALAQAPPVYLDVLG
Sequence of TGFBR2 (P37173 whole entry): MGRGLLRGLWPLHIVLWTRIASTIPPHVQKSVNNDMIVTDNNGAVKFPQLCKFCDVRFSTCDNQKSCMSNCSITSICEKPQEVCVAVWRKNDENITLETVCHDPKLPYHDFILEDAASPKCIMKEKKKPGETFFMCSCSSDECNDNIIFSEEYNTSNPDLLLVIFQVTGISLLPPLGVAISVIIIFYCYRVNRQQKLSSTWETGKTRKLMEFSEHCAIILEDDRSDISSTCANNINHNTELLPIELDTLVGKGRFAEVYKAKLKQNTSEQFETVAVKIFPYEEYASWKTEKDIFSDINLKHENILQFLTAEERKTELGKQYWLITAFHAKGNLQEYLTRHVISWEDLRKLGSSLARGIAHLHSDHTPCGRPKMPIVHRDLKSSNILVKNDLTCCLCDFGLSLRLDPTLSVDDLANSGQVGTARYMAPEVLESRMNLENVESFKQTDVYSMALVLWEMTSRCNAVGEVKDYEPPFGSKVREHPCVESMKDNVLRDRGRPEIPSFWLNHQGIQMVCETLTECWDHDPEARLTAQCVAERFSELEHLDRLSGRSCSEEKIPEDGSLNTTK

Regarding `CC(C)(CO)Nc1ccc(C(=O)Nc2cccc(S(=O)(=O)C3CCCC3)c2)c(N2CCC3(CC2)CC3)n1` [AM-0277], the remaining activity at 1 µM was 96% at MAP2K3 (setting [1]), 40% at Trk-A (setting [1]), 75% at TGFBR2 (setting [1]) and 46% on Abl_phos (setting [1]).

For the compound `CC(C)(C)NS(=O)(=O)c1cccc(NC(=O)c2ccc(S(=O)(=O)NC(C)(C)C)cc2N2CCC3(CC2)CC3)c1` [AM-1882], the remaining activity at 1 µM was determined as 67% on MAP2K3 (setting [2]), 54.5% on Trk-A (setting [2]), 99.5% on TGFBR2 (setting [2]) and 63.5% at Abl_phos (setting [2]).

On to `C[C@@H]1CN(c2cccc(NC(=O)c3ccc(NS(=O)(=O)CCO)cc3N3CCC4(CC3)CC4)n2)CCO1` [AM-5308], for which the remaining activity at 1 µM stood at 88.5% at MAP2K3 (setting [3]), 17.5% on Trk-A (setting [3]), 100% at TGFBR2 (setting [3]) and 98.5% at Abl_phos (setting [3]).
